Test results taken from US9783536B2, “Nitrogen-containing heterocyclic compound or salt thereof” (FUJIFILM Corporation, priority 2013, dated 2017).
Structures can show the parent of a compound that is named as a salt. Where two headings read alike, the source gives them in different places.

Assays:
human PI3Kα protein = molecular target: T1, human PI3Kα protein (Homo sapiens, UniProt P42336); test: PI3Kα enzyme assay (ADP-Glo); assay type: biochemical; details: read-out: PI3Kα enzyme inhibitory activity
T1 construct: purchased Carna Biosciences, Inc; host or cells: baculovirus expression system
T1 sequence (P42336 whole entry): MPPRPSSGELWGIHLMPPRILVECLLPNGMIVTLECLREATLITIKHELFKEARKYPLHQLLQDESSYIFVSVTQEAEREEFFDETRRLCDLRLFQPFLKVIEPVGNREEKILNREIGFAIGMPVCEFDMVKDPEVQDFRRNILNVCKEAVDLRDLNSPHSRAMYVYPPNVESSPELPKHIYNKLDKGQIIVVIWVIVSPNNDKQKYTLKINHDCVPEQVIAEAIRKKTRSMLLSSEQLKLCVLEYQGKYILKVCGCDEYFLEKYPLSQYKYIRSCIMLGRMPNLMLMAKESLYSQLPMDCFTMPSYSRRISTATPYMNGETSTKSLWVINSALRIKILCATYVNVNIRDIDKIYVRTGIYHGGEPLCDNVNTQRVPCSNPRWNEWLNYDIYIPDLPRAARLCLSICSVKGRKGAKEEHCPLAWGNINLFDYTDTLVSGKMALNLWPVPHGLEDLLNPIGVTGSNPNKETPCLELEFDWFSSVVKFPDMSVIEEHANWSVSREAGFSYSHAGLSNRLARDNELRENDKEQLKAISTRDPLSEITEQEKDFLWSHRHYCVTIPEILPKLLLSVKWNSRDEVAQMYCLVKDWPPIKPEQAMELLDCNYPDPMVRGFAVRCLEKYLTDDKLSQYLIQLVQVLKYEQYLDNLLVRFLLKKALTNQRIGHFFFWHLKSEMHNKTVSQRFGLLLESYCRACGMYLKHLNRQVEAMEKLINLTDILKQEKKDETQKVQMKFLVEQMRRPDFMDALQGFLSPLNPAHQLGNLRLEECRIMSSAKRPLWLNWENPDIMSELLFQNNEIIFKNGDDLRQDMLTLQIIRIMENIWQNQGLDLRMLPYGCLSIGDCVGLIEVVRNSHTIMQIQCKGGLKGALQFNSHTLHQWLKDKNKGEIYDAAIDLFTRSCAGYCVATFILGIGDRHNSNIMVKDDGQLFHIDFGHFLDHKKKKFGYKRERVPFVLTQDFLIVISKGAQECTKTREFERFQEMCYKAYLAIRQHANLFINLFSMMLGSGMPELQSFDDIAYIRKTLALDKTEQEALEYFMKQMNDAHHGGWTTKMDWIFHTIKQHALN
T1 sequence (P27986 whole entry partner): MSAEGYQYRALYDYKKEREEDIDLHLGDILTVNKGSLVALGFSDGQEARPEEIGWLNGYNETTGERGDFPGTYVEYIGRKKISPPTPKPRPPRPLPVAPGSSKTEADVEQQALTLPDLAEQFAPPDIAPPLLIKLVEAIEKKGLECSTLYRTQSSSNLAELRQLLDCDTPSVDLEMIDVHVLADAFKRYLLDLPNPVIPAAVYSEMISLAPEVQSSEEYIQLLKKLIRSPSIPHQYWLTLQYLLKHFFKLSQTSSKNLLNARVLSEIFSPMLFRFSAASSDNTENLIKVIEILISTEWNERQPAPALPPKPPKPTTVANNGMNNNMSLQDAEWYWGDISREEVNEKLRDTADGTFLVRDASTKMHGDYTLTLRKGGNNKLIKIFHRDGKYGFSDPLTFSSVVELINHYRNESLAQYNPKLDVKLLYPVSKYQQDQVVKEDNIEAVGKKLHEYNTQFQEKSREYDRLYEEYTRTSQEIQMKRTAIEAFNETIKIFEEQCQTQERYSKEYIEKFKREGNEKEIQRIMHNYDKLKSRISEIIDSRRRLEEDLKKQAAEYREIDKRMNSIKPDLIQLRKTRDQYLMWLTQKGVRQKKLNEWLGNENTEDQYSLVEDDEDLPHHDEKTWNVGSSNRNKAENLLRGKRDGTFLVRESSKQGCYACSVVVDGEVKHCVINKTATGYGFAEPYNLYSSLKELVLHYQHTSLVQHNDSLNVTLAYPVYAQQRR
Method: In a PI3Kα enzyme assay, a product (manufactured by Carna Biosciences, Inc.) obtained by biotinylating a human PI3Kα protein produced by using a baculovirus expression system was used. In addition, in the detection of enzyme activity, ADP-GLO KINASE ASSAY (trade name, manufactured by PROMEGA Corporation) was used.
10 μL of a reaction liquid (4.5 nmol/L PI3Kα, 40 mmol/L Tris-HCl, 20 mmol/L MgCl2, 0.1% BSA, pH 7.5) including the human PI3Kα protein and a test compound having a predetermined concentration was allowed to stand at room temperature for 15 minutes. Then, 5 μL of a mixture liquid of L-α-phosphatidylinositol 4,5-diphosphate (PIP2) (manufactured by Sigma-Aldrich Co. LLC.) and ATP (manufactured by Sigma-Aldrich Co. LLC.), which are substrates, was added thereto such that final concentrations thereof became 50 μmol/L and 100 μmol/L, respectively, and an enzyme reaction was performed by allowing to stand at 25° C. for 60 minutes.
After the reaction, the enzyme reaction was stopped by adding 15 μL of an ADP-GLO REAGENT (trade name, manufactured by PROMEGA Corporation) thereto and allowing to stand at room temperature for 60 minutes. Then, 30 μL of a KINASE DETECTION REAGENT (trade name, manufactured by PROMEGA Corporation) was added thereto, followed by allowing to stand at room temperature for 40 minutes, and ADP produced by the enzyme reaction was quantified by emission intensity.
ENVISION (trade name, manufactured by Perkin Elmer Inc.) was used for the measurement of the emission intensity.
(§1) The inhibitory activities of the compounds were evaluated using IC50 (50% inhibitory concentration). The IC50 was calculated using XLFIT (trade name, manufactured by ID Business Solutions).

[1] = molecular target: T2, GST fusion human ERK2 protein (Homo sapiens, UniProt P28482); test: ERK2 enzyme assay (2); assay type: biochemical; details: read-out: ERK2 enzyme inhibitory activity (2)
T2 construct: purchased Carna Biosciences, Inc; host or cells: E. coli expression system
T2 sequence (P28482 whole entry, the tested form may be a part): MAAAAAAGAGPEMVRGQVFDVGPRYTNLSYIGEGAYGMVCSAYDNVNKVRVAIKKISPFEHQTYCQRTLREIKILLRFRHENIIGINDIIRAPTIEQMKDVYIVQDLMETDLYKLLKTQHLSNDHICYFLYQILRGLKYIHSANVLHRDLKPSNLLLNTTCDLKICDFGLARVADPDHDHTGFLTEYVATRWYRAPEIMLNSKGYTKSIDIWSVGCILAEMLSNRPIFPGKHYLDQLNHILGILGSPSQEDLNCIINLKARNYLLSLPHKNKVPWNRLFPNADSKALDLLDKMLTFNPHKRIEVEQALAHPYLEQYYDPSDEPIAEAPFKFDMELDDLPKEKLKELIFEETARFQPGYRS
Method: In an ERK2 enzyme assay, GLUTATHIONE S-TRANSFERASE (GST) FUSION HUMAN ERK2 PROTEIN (manufactured by Carna Biosciences, Inc.), which was produced by using an E. coli expression system, was used.
12 μL of a reaction liquid (1.25 nmol/L ERK2, 100 mmol/L Hepes, 10 mmol/L MgCl2, 1.5 mmol/L DTT, 0.003% Brij35, pH 7.5) including ERK2 protein and a test compound having a predetermined concentration was allowed to stand at room temperature for 15 minutes. Then, 3 μL of a mixture liquid of FL-PEPTIDE8 (5-FAM-IPTSPITTTYFFFKKK-COOH) (manufactured by Caliper Life Sciences), which is substrate peptide, and ATP (manufactured by Sigma-Aldrich Co. LLC.) was added thereto such that the final concentrations thereof became 4.25 μmol/L and 1 mmol/L, respectively, and an enzyme reaction was performed by allowing to stand at 25° C. for 120 minutes.
After the reaction, the enzyme reaction was stopped by adding 30 μL of a reaction stopper liquid (100 mmol/L HEPES, 11.2 mmol/L EDTA, 5.6% Brij35, pH 7.5) including a 0.5% COATING REAGENT 8 (trade name, manufactured by Perkin Elmer Inc.) thereto. Then, phosphorylated peptide and non-phosphorylated peptide were separated using LABCHIP EZ READER (trade name, manufactured by Caliper Life Sciences), and the porportion of the phosphorylated peptide was quantified.
as §1

SMILES | IC50 (human PI3Kα protein) [nM] | IC50 ([1]; ERK2 enzyme assay (2)) [nM] | IC50 [1] [nM]
Cn1cc(-c2cnc3ccc(Nc4cc(C(C)(C)CO[Si](C)(C)C(C)(C)C)cnn4)nc3c2)cn1 [Example 0559, N-(5-(1-((tert-butyldimethylsilyl)oxy)-2-methylpropan-2-yl)pyridazin-3-yl)-7-(1-methyl-1H-pyrazol-4-yl)-1,5-naphthyridine-2-amine] | 10000 to 50000 | < 1000 | –
CC(C)c1cnnc(Nc2ccc3ncc(-c4cnccn4)cc3n2)c1 [Example 0606] | 1000 to 10000 | < 1000 | –
CC(C)c1cnnc(Nc2ccc3ncc(-c4cnn(CCCN5CC(OCc6ccccc6)C5)c4)cc3n2)c1 [Example 0680] | < 1000 | < 1000 | –
Cc1n[nH]cc1-c1cnc2ccc(Nc3cc(C(C)C)cnn3)nc2c1 [Example 0719, N-(5-isopropylpyridazin-3-yl)-7-(3-methyl-1H-pyrazol-4-yl)-1,5-naphthyridine-2-amine] | < 1000 | < 1000 | –
CNc1nn(C)cc1-c1cnc2ccc(Nc3cc(C(C)C)cnn3)nc2c1 [Example 0683, N-(5-isopropylpyridazin-3-yl)-7-(1-methyl-3-(methylamino)-1H-pyrazol-4-yl)-1,5-naphthyridine-2-amine hydrochloride] | < 1000 | < 1000 | –
CC(C)c1cnnc(Nc2ccc3ncc(-c4cn(C)nc4Cc4ccccc4)cc3n2)c1 [Example 0828] | < 1000 | < 1000 | –
COC1(C)CN(CCCn2cc(-c3cnc4ccc(Nc5cc(C(C)C)cnn5)nc4c3)cn2)C1 [Example 0794, N-(5-isopropylpyridazin-3-yl)-7-(1-(3-(3-methoxy-3-methylazetidin-1-yl)propyl)-1H-pyrazol-4-yl)-1,5-naphthyridine-2-amine] | < 1000 | < 1000 | –
CC(C)c1cnnc(Nc2ccc3ncc(-c4ccc(=O)n(CCCN5CCOCC5)c4)cc3n2)c1 [Example 0618] | < 1000 | < 1000 | –
CC(C)c1cnnc(Nc2ccc3ncc(-c4cn(C)nc4Nc4ccccc4)cc3n2)c1 [Example 0829] | < 1000 | < 1000 | –
CC(C)c1cnnc(Nc2ccc3ncc(N4CCC(CO)CC4)cc3n2)c1 [Example 0511, (1-(6-((5-Isopropylpyridazin-3-yl)amino)-1,5-naphthyridin-3-yl)piperidin-4-yl)methanol] | 1000 to 10000 | < 1000 | –
CC(C)c1cnnc(Nc2ccc3ncc(N(C)S(C)(=O)=O)cc3n2)c1 [Example 0841, N-(6-((5-isopropylpyridazin-3-yl)amino)-1,5-naphthyridin-3-yl)-N-methylmethane sulfonamide] | 1000 to 10000 | 1000 to 10000 | –
COC1(C)CN(CCCn2cc(-c3cnc4ccc(Nc5cc(C(C)C)cnn5)nc4c3)c(C)n2)C1 [Example 0797] | < 1000 | < 1000 | –
CC(C)c1cnnc(Nc2ccc3ncc(-c4cn(C)nc4C4CCOCC4)cc3n2)c1 [Example 0772] | < 1000 | < 1000 | –
CC(C)c1cnnc(Nc2ccc3ncc(NC4CCOC4)cc3n2)c1 (stereo not drawn) [Example 0890] | < 1000 | 1000 to 10000 | –
CC(C)c1cnnc(Nc2ccc3ncc(-c4cn(C)nc4NC4CCC4)cc3n2)c1 [Example 0939] | < 1000 | – | < 1000
CC(C)c1cnnc(Nc2ccc3ncc(N4CCN(CC(F)(F)F)CC4)cc3n2)c1 [Example 0875] | 1000 to 10000 | < 1000 | –
CC(C)c1cnnc(Nc2ccc3ncc(-c4cnn(CCCN5CC(OCCF)C5)c4)cc3n2)c1 [Example 0713, 7-(1-(3-(3-(2-Fluoroethoxy)azetidin-1-yl)propyl)-1H-pyrazol-4-yl)-N-(5-isopropylpyridazin-3-yl)-1,5-naphthyridine-2-amine] | < 1000 | < 1000 | –
CC(C)c1cnnc(Nc2ccc3ncc(-c4cnn(C[C@H]5CCC(=O)N5C)c4)cc3n2)c1 [Example 0568] | < 1000 | < 1000 | –
CC(C)c1cnnc(Nc2ccc3ncc(-c4cnn(C[C@H]5CCC(=O)N5)c4)cc3n2)c1 [Example 0566] | < 1000 | < 1000 | –
CC(C)c1cnnc(Nc2ccc3ncc(-c4cnn(CC5CCCCC5)c4)cc3n2)c1 [Example 0519, 7-(1-(Cyclohexylmethyl)-1H-pyrazol-4-yl)-N-(5-isopropylpyridazin-3-yl)-1,5-naphthyridine-2-amine] | 1000 to 10000 | < 1000 | –
CC(C)c1cnnc(Nc2ccc3ncc(-c4cnn(CCCN(C)CC(=O)OC(C)(C)C)c4)cc3n2)c1 [Example 0661] | < 1000 | < 1000 | –
COCCNc1nn(C)cc1-c1cnc2ccc(Nc3cc(C(C)C)cnn3)nc2c1 [Example 0946] | < 1000 | – | < 1000
CC(C)c1cnnc(Nc2ccc3ncc(-c4cnn(CC(F)(F)CN5CCOCC5)c4)cc3n2)c1 [Example 0731] | < 1000 | < 1000 | –
CC(C)c1cnnc(Nc2ccc3ncc(-c4ccn[nH]4)cc3n2)c1 [Example 0622, N-(5-isopropylpyridazin-3-yl)-7-(1H-pyrazol-5-yl)-1,5-naphthyridine-2-amine] | < 1000 | < 1000 | –

Results, then the molecule that gave them:

IC50 (human PI3Kα protein) [nM] | IC50 ([1]; ERK2 enzyme assay (2)) [nM] | IC50 [1] [nM] | SMILES
< 1000 | < 1000 | – | CC(C)c1cnnc(Nc2ccc3ncc(-c4cnn(Cc5ccc(N)cc5)c4)cc3n2)c1 [Example 0717, 7-(1-(4-Aminobenzyl)-1H-pyrazol-4-yl)-N-(5-isopropylpyridazin-3-yl)-1,5-naphthyridine-2-amine]
< 1000 | < 1000 | – | Cc1cc(-c2nn(C)cc2-c2cnc3ccc(Nc4cc(C(C)C)cnn4)nc3c2)cc(C)n1 [Example 0748, 7-(3-(2,6-Dimethylpyridin-4-yl)-1-methyl-1H-pyrazol-4-yl)-N-(5-isopropylpyridazin-3-yl)-1,5-naphthyridine-2-amine]
< 1000 | < 1000 | – | CC(C)c1cnnc(Nc2ccc3ncc(-c4cnn(CC5CCN(C(=O)N(C)C)CC5)c4)cc3n2)c1 [Example 0529]
< 1000 | < 1000 | – | CC(=O)N1CCC(Cn2cc(-c3cnc4ccc(Nc5cc(C(C)C)cnn5)nc4c3)cn2)CC1 [Example 0528, 1-(4-((4-(6-((5-Isopropylpyridazin-3-yl)amino)-1,5-naphthyridin-3-yl)-1H-pyrazol-1-yl)methyl)piperidin-1-yl)ethanone]
< 1000 | < 1000 | – | CC(C)c1cnnc(Nc2ccc3ncc(-c4cnn(CC5CC5)c4)cc3n2)c1 [Example 0581]
< 1000 | 1000 to 10000 | – | CC(C)c1cnnc(Nc2ccc3ncc(/C=C/c4ccccn4)cc3n2)c1 [Example 0656, (E)-N-(5-isopropylpyridazin-3-yl)-7-(2-(pyridin-2-yl)vinyl)-1,5-naphthyridine-2-amine]
< 1000 | < 1000 | – | Cc1nn(C)cc1-c1cnc2ccc(Nc3cc(C4CCC4)cnn3)nc2c1 [Example 0791]
< 1000 | < 1000 | – | CC(C)c1cnnc(Nc2ccc3ncc(-c4cn(C)nc4NCc4ccccn4)cc3n2)c1 [Example 0834]
< 1000 | < 1000 | – | CC(C)c1cnnc(Nc2ccc3ncc(N4CCOC[C@@H]4C)cc3n2)c1 [Example 0764]
< 1000 | – | < 1000 | CC(C)c1cnnc(Nc2ccc3ncc(-c4cn(C)nc4NC4CCOC4)cc3n2)c1 (stereo not drawn) [Example 0940]
< 1000 | < 1000 | – | CCCN(CCC)c1cnnc(Nc2ccc3ncc(-c4cnn(C)c4)cc3n2)c1 [Example 0523]
< 1000 | < 1000 | – | CC(=O)Nc1nn(C)cc1-c1cnc2ccc(Nc3cc(C(C)C)cnn3)nc2c1 [Example 0690, N-(4-(6-((5-isopropylpyridazin-3-yl)amino)-1,5-naphthyridin-3-yl)-1-methyl-1H-pyrazol-3-yl)acetamide]
